Laboratory results as given in patent EP0642343B1, “Acridine carboxamides for the treatment of cancer” (XENOVA LIMITED, priority 1992, dated 1993).

Tests used:
[1] = tested on: human melanoma cell line designated WADH; assay: Tumour growth delay, human melanoma xenograft in nude mice; assay type: in vivo, nude (athymic) mice; conditions: tumours 4-7 mm; ip divided dose 2 x 100 mg/kg at 0 and 60 min, repeated after 7 days
Experimental: Colon 38 carcinoma was obtained from the Mason Research Institute (Worchester, MA, USA) and was grown in BDF1 hosts. Tumour fragments (1 mm^3) were implanted subcutaneously in anaesthetised mice. Tumours had grown to the appropriate size 9 days after implantation. A melanoma tumour line (WADH) was developed in the Cancer Research Laboratory. Tumour cells were grown in culture and 1 x 10^6 cells were implanted intradermally into the flank of nude (C57BI/J genetic background) mice. Mice were grown under sterile surroundings until tumours were of appropriate size.
Tumours were measured 3x (colon 38) or 2x (xeno-graft) weekly with callipers and tumour volumes calculated as 0.52a^2b, where a and b were the minor and major tumour axes. Tumour growth delays were measured at a time when tumour volumes of treated and control animals had increased by 4-fold.
A further experiment was carried out using human melanoma line, implanted subcutaneously in nude (athymic) mice using an inoculation of one million cells of a human melanoma cell line designated WADH. Treatment was started when the tumours were 4-7 mm in diameter. DACA was administered ip as a divided dose (2 x 100 mg/kg body weight at 0 and 60 min) and a second similar administra-tion (2 x 100 mg/kg) was given after 7 days. A growth delay of 30 days was obtained (Figure 6).

CEM-CCRF = assay: Growth inhibition of leukaemia line, continuous exposure, MTT staining; assay type: cell-based; conditions: Homo sapiens
Experimental: (§1) Tumour cell lines were cultured in 96-well plates. […] Primary cultures were incubated at 37°C in sealed perspex boxes containing a humidified atmosphere of 5% CO2 and 5% O2 in nitrogen for 7 days. 5-Methyl-[^3H]-thymidine (20 Ci.mmol^-1; 0.04 µCi per well), thymidine and 5-fluorodeoxyuridine (each at final concentrations of 0.5 µM) were added in medium to cultures (20 µl per well) 24 h before terminating the cultures.
(§2) 1989, 81:1088-1092, where growth, as indicated by staining or thymidine incorporation, corresponded to 50% of that of the control cultures.
(§3) The effect of DACA on the growth of cultured cells was assessed by continuous drug exposure. […] These values were similar to those of other human leukaemia cell lines, which ranged from 290 to 760 nM (CEM-CCRF, 410 nM; MOLT-4, 290 nM; Daudi, 400 nM; Raji, 370 nM, U937, 590 nM; HL-60, 620 nM; K-562, 760 nM). Four multidrug-resistant cell lines, developed from JL and JB1 by in vitro exposure to increasing concentrations of doxorubicin (LD and B1D) or amsacrine (LA and B1A) (Finlay G.J., et al., J. Natl. Cancer Inst. 1990, 82, 662-667, Snow K., et al., Br. J. Cancer 1991, 63, 17-28) were tested.

Daudi = assay: as above; assay type: cell-based; conditions: Homo sapiens
Experimental: as §1, §2, §3

HL-60 = assay: as above; assay type: cell-based; conditions: Homo sapiens
Experimental: as §1, §2, §3

K-562 = assay: as above; assay type: cell-based; conditions: Homo sapiens, K562
Experimental: as §1, §2, §3

MOLT-4 = assay: as above; assay type: cell-based; conditions: Homo sapiens
Experimental: as §1, §2, §3

Raji = assay: as above; assay type: cell-based; conditions: Homo sapiens
Experimental: as §1, §2, §3

U937 = assay: as above; assay type: cell-based; conditions: Homo sapiens, U-937
Experimental: as §1, §2, §3

[2] = tested on: human Jurkat T cell leukaemia line, diploid (L); assay: as above; assay type: cell-based; conditions: continuous drug exposure
Experimental: as §1, §2, §3

[3] = tested on: human Jurkat T cell leukaemia line, tetraploid (B1); assay: as above; assay type: cell-based; conditions: continuous drug exposure
Experimental: as §1, §2, §3

B1A = assay: Resistance factor, drug-resistant Jurkat leukaemia subline; assay type: cell-based, human; conditions: B1A (from B1 by exposure to amsacrine); ratio of IC50 resistant line / parent line
Experimental: (§4) Tumour cell lines were cultured in 96-well plates. Growth of NCI cell lines was assessed using sulpho-rhodamine B staining (Skehan P., et al., J. Natl. Cancer Inst. 1990, 82, 1107-1112), that of the leukaemia lines with (4,5-dimethylthiazole-2-yl)-2,5-diphenyltetrazolium (MTT) staining (Mosmann T., J. Immun. Methods 1983, 65, 55-63) and that of the primary human tumour material by ^3H-thymidine incorporation (Marshall E.S., et al., J. Natl. Cancer Inst. 1992, 84, 341-344). Primary tumour material was cultured in 96-well plates in which the wells were coated with agarose to inhibit selectively the growth of normal cells. (Marshall E.S., et al., J. Natl. Cancer Inst. 1992, 84, 341-344). Primary cultures were incubated at 37°C in sealed perspex boxes containing a humidified atmosphere of 5% CO2 and 5% O2 in nitrogen for 7 days. 5-Methyl-[^3H]-thymidine (20 Ci.mmol^-1; 0.04 µCi per well), thymidine and 5-fluorodeoxyuridine (each at final concentrations of 0.5 µM) were added in medium to cultures (20 µl per well) 24 h before terminating the cultures. Cells were aspirated on to glass fibre filters using a multiple automated sample harvester (LKB Wallac OY Beta Harvester). The filter discs were washed for 15 seconds with water, dried, and the amount of tritium retained quantified by liquid scintillation.
(§5) IC50 values were defined as in Paull K.D., et al., J. Natl. Cancer Inst. 1989, 81:1088-1092, where growth, as indicated by staining or thymidine incorporation, corresponded to 50% of that of the control cultures. […] Variances of DELTA values were expressed as standard deviations in log10 units. Comparison of DELTA values was made using Pearson correlation coefficients. Resistance factors were defined as the ratios of IC50 values between the resistant line and the parent line. Statistical evaluation was performed either with NCI programmes, with RS/1 software (BBN Research Systems, Cambridge, MA, USA), or with Sigmaplot (Jandel Scientific, San Rafael, CA, USA).
(§6) The effect of DACA on the growth of cultured cells was assessed by continuous drug exposure. […] Four multidrug-resistant cell lines, developed from JL and JB1 by in vitro exposure to increasing concentrations of doxorubicin (LD and B1D) or amsacrine (LA and B1A) (Finlay G.J., et al., J. Natl. Cancer Inst. 1990, 82, 662-667, Snow K., et al., Br. J. Cancer 1991, 63, 17-28) were tested.
(§7) DACA was compared with six other drugs including four topo II poisons, doxorubicin, mitozantrone, etopo-side and amsacrine. […]

B1D = assay: as above; assay type: cell-based, human; conditions: B1D (from B1 by exposure to doxorubicin); ratio of IC50 resistant line / parent line
Experimental: as §4, §5, §6, §7

LA = assay: as above; assay type: cell-based, human; conditions: LA (from L by exposure to amsacrine); ratio of IC50 resistant line / parent line
Experimental: as §4, §5, §6, §7

LD = assay: as above; assay type: cell-based, human; conditions: LD (from L by exposure to doxorubicin); ratio of IC50 resistant line / parent line
Experimental: as §4, §5, §6, §7

CN(C)CCNC(=O)c1cccc2cc3ccccc3nc12 [DACA, N-[2-(dimethylamino)ethyl]acridine-4-carboxamide]
Growth delay [1]: 30 days | IC50 (CEM-CCRF): 410 nM | IC50 (Daudi): 400 nM | IC50 (HL-60): 620 nM | IC50 (K-562): 760 nM | IC50 (MOLT-4): 290 nM | IC50 (Raji): 370 nM | IC50 (U937): 590 nM | IC50 [2]: 380 nM | IC50 [3]: 380 nM | Resistance factors (B1A): 3.9 | Resistance factors (B1D): 1.9 | Resistance factors (LA): 2.0 | Resistance factors (LD): 2.5
